Results reported in ChEMBL document CHEMBL3804804, “Synthesis and antimycobacterial activity of N-(2-aminopurin-6-yl) and N-(purin-6-yl) amino acids and dipeptides” (Bioorg Med Chem Lett, 2016).
In brackets after ≈: the same amount, converted by molar mass.

Legend:
[1] = system: Mycobacterium tuberculosis; experiment: Antimycobacterial activity against Mycobacterium tuberculosis H37Rv after 10 days by micro broth dilution method; format: functional; conditions: 240 h
[2] = system: Mycobacterium avium; experiment: Antimycobacterial activity against Mycobacterium avium after 10 days by micro broth dilution method; format: functional; conditions: 240 h
[3] = system: Mycolicibacter terrae; experiment: Antimycobacterial activity against Mycobacterium terrae after 10 days by micro broth dilution method; format: functional; conditions: 240 h
[4] = Cytotoxicity against human FEH cells after 72 hrs by MTT assay; format: cell-based

Compound | MIC [1] [µg/mL] | MIC [2] [µg/mL] | MIC [3] [µg/mL] | IC50 [4] [µM]
O=C(O)CCNc1[nH]cnc2ncnc1-2 | 12.5 (≈ 60.3 µM) | – | – | –
O=C(O)CCCNc1ncnc2[nH]cnc12 | 12.5 (≈ 56.5 µM) | – | – | –
CC(=O)Nc1nc(N[C@H](C(=O)OC(C)(C)C)C(C)C)c2nc[nH]c2n1 | 12.5 (≈ 35.9 µM) | – | – | –
COC(=O)[C@H](CCSC)NC(=O)CNc1ncnc2[nH]cnc12 | 12.5 (≈ 36.9 µM) | – | – | –
C[C@H](NC(=O)CNc1nc(N)nc2[nH]cnc12)C(=O)O.O | 6.25 | – | – | –
CC(C)C[C@H](NC(=O)CNc1ncnc2[nH]cnc12)C(=O)O.O | 12.5 | – | – | –
C[C@H](Nc1nc(N)nc2[nH]cnc12)C(=O)O | 12.5 (≈ 56.3 µM) | – | – | –
CC(=O)Nc1nc(N[C@@H](C)C(=O)OC(C)(C)C)c2nc[nH]c2n1 | 12.5 (≈ 39 µM) | – | – | –
CC(=O)Nc1nc(N2CCC[C@H]2C(=O)OC(C)(C)C)c2nc[nH]c2n1 | 6.25 (≈ 18 µM) | 6.25 (≈ 18 µM) | 6.25 (≈ 18 µM) | > 50
C[C@H](NC(=O)CNc1ncnc2[nH]cnc12)C(=O)O.O | 12.5 | – | – | –
CSCC[C@H](NC(=O)CNc1ncnc2[nH]cnc12)C(=O)O.O | 12.5 | – | – | –
CC(=O)Nc1nc(N[C@@H](Cc2ccccc2)C(=O)OC(C)(C)C)c2nc[nH]c2n1 | 12.5 (≈ 31.5 µM) | – | – | –
CC(=O)Nc1nc(NCC(=O)O)c2nc[nH]c2n1 | 0.7 (≈ 2.8 µM) | 0.7 (≈ 2.8 µM) | 0.7 (≈ 2.8 µM) | > 50
CC(C)[C@H](NC(=O)CNc1nc(N)nc2[nH]cnc12)C(=O)O.O.O | 12.5 | – | – | –
O.O=C(CNc1ncnc2[nH]cnc12)N[C@@H](Cc1ccccc1)C(=O)O | 3.1 | – | – | > 50
CC(C)[C@H](Nc1nc(N)nc2[nH]cnc12)C(=O)O | 6.25 (≈ 25 µM) | 6.25 (≈ 25 µM) | 6.25 (≈ 25 µM) | > 50
COC(=O)[C@H](CC(C)C)NC(=O)CNc1ncnc2[nH]cnc12 | 12.5 (≈ 39 µM) | – | – | –
COC(=O)[C@@H](NC(=O)CNc1nc(NC(C)=O)nc2[nH]cnc12)C(C)C | 12.5 (≈ 34.4 µM) | – | – | –
CSCC[C@H](NC(=O)CNc1nc(N)nc2[nH]cnc12)C(=O)O.O | 3.1 | 3.1 | 3.1 | > 50
COC(=O)[C@H](C)NC(=O)CNc1ncnc2[nH]cnc12 | 12.5 (≈ 44.9 µM) | – | – | –
COC(=O)[C@H](C)NC(=O)CNc1nc(NC(C)=O)nc2[nH]cnc12.O | 12.5 | – | – | –
Nc1nc(NCC(=O)N[C@@H](CCC(=O)O)C(=O)O)c2nc[nH]c2n1 | 0.7 (≈ 2.08 µM) | 0.35 (≈ 1.04 µM) | 0.35 (≈ 1.04 µM) | > 50

Compound | MIC [1] [µg/mL] | MIC [2] [µg/mL] | MIC [3] [µg/mL] | IC50 [4] [µM]
Nc1nc(NCC(=O)N[C@@H](CC(=O)O)C(=O)O)c2nc[nH]c2n1 | 12.5 (≈ 38.7 µM) | – | – | –
O=C(O)CNc1ncnc2[nH]cnc12 | 6.25 (≈ 32.4 µM) | – | – | –
COC(=O)CC[C@H](NC(=O)CNc1nc(NC(C)=O)nc2[nH]cnc12)C(=O)OC | 12.5 (≈ 30.7 µM) | – | – | –
Nc1nc(NCC(=O)N[C@@H](Cc2ccccc2)C(=O)O)c2nc[nH]c2n1.O.O | 6.25 | – | – | –
COC(=O)[C@H](CC(C)C)NC(=O)CNc1nc(NC(C)=O)nc2[nH]cnc12 | 12.5 (≈ 33.1 µM) | – | – | –
COC(=O)[C@H](Cc1ccccc1)NC(=O)CNc1nc(NC(C)=O)nc2[nH]cnc12 | 12.5 (≈ 30.4 µM) | – | – | –
COC(=O)[C@H](CCSC)NC(=O)CNc1nc(NC(C)=O)nc2[nH]cnc12 | 3.1 (≈ 7.84 µM) | 3.1 (≈ 7.84 µM) | 1.5 (≈ 3.79 µM) | > 50
Nc1nc(N[C@@H](Cc2ccccc2)C(=O)O)c2nc[nH]c2n1 | 12.5 (≈ 41.9 µM) | – | – | –
CC(C)[C@H](NC(=O)CNc1ncnc2[nH]cnc12)C(=O)O.O | 12.5 | – | – | –
Nc1nc(N2CCC[C@H]2C(=O)O)c2nc[nH]c2n1 | 12.5 (≈ 50.4 µM) | – | – | –
COC(=O)CNc1nc(N)nc2[nH]cnc12.Cl.Cl | 6.25 | 6.25 | 6.25 | > 50
COC(=O)C[C@H](NC(=O)CNc1nc(NC(C)=O)nc2[nH]cnc12)C(=O)OC | 12.5 (≈ 31.8 µM) | – | – | –
O=C(O)CCCCCNc1ncnc2[nH]cnc12 | 12.5 (≈ 50.1 µM) | – | – | –
Nc1nc(NCC(=O)O)c2nc[nH]c2n1 | 12.5 (≈ 60 µM) | – | – | –
COC(=O)[C@@H](NC(=O)CNc1ncnc2[nH]cnc12)C(C)C | 12.5 (≈ 40.8 µM) | – | – | –
CC(C)C[C@H](NC(=O)CNc1nc(N)nc2[nH]cnc12)C(=O)O.O | 12.5 | – | – | –
CC(=O)Nc1nc(N[C@@H](CC(=O)OC(C)(C)C)C(=O)OC(C)(C)C)c2nc[nH]c2n1 | 12.5 (≈ 29.7 µM) | – | – | –
O.O=C(O)CC[C@H](NC(=O)CNc1ncnc2[nH]cnc12)C(=O)O | 0.7 | 0.7 | 0.7 | > 50
COC(=O)[C@H](Cc1ccccc1)NC(=O)CNc1ncnc2[nH]cnc12 | 1.5 (≈ 4.23 µM) | 1.5 (≈ 4.23 µM) | 1.5 (≈ 4.23 µM) | > 50
COC(=O)CC[C@H](NC(=O)CNc1ncnc2[nH]cnc12)C(=O)OC | 12.5 (≈ 35.7 µM) | – | – | –
NNC(=O)c1ccncc1 [ISONIAZID] | 0.1 (≈ 0.729 µM) | 0.1 (≈ 0.729 µM) | 0.1 (≈ 0.729 µM) | –
CC1COc2c(N3CCN(C)CC3)c(F)cc3c(=O)c(C(=O)O)cn1c23 (stereo unspecified) [OFLOXACIN] | 0.1 (≈ 0.277 µM) | 0.1 (≈ 0.277 µM) | 0.1 (≈ 0.277 µM) | –
